Measurements: the supplement of paper PMC10307832

Assays:
Test in all cases: relative viability (nuclei count vs DMSO), 5 days (fraction); higher = more cells survive
Pemetrexed + Luminespib = compound: Nc1nc2[nH]cc(CCc3ccc(C(=O)N[C@@H](CCC(=O)O)C(=O)O)cc3)c2c(=O)[nH]1 [Pemetrexed] + CCNC(=O)c1noc(-c2cc(C(C)C)c(O)cc2O)c1-c1ccc(CN2CCOCC2)cc1 [Luminespib] (partner 0.01 µM)
In short: (§1)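 For relative viability, nuclei counts in treated wells were divided by those in vehicle wells. Lung cancer cell lines had been pin-tool dosed in 1536-well plates the day after seeding and cultured for 5 days, then fixed and stained in one step (final 0.05% Triton X-100, 1% formaldehyde, 1 ug/ml Hoechst) and imaged at 4×. Doses were one drug alone or a fixed anchor-drug dose plus five library-drug doses (not always all listed) in √10 steps, and values are duplicate-plate medians.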

Idelalisib + Vorinostat = compound: CC[C@H](Nc1ncnc2[nH]cnc12)c1nc2cccc(F)c2c(=O)n1-c1ccccc1 [Idelalisib] + O=C(CCCCCCC(=O)Nc1ccccc1)NO [Vorinostat] (partner 1 µM)
In short: as §1

Idelalisib + OSI-027 = compound: CC[C@H](Nc1ncnc2[nH]cnc12)c1nc2cccc(F)c2c(=O)n1-c1ccccc1 [Idelalisib] + COc1cccc2cc(-c3nc([C@H]4CC[C@H](C(=O)O)CC4)n4ncnc(N)c34)[nH]c12 [OSI-027] (partner 0.5 µM)
In short: as §1

Pemetrexed + Olaparib = compound: Nc1nc2[nH]cc(CCc3ccc(C(=O)N[C@@H](CCC(=O)O)C(=O)O)cc3)c2c(=O)[nH]1 [Pemetrexed] + O=C(c1cc(Cc2n[nH]c(=O)c3ccccc23)ccc1F)N1CCN(C(=O)C2CC2)CC1 [Olaparib] (partner 8 µM)
In short: as §1

Cell Line | relative viability (Pemetrexed + Luminespib; first compound 0.002 µM) | relative viability (Pemetrexed + Luminespib; first compound 0.006325 µM) | relative viability (Pemetrexed + Luminespib; first compound 0.02 µM) | relative viability (Pemetrexed + Luminespib; first compound 0.06325 µM) | relative viability (Pemetrexed + Luminespib; first compound 0.2 µM) | relative viability (Idelalisib + Vorinostat; first compound 0.04 µM) | relative viability (Idelalisib + Vorinostat; first compound 0.1265 µM) | relative viability (Idelalisib + Vorinostat; first compound 1.265 µM) | relative viability (Idelalisib + Vorinostat; first compound 4 µM) | relative viability (Idelalisib + OSI-027; first compound 0.04 µM) | relative viability (Idelalisib + OSI-027; first compound 0.1265 µM) | relative viability (Idelalisib + OSI-027; first compound 0.4 µM) | relative viability (Idelalisib + OSI-027; first compound 1.265 µM) | relative viability (Idelalisib + OSI-027; first compound 4 µM) | relative viability (Pemetrexed + Olaparib; first compound 0.002 µM) | relative viability (Pemetrexed + Olaparib; first compound 0.006325 µM) | relative viability (Pemetrexed + Olaparib; first compound 0.02 µM) | relative viability (Pemetrexed + Olaparib; first compound 0.06325 µM) | relative viability (Pemetrexed + Olaparib; first compound 0.2 µM) | relative viability (Idelalisib + Vorinostat; first compound 0.4 µM)
NCI-H1793 | 0.397 | 0.201 | 0.152 | 0.118 | 0.237 | 0.764 | 0.699 | 0.75 | 0.582 | 0.366 | 0.273 | 0.17 | 0.246 | 0.159 | 0.868 | 0.712 | 0.912 | 0.919 | 0.774 | –
SK-MES-1 | 0.649 | 0.56 | 0.965 | 0.688 | 0.773 | 1.19 | 1.06 | 0.395 | 1.04 | 0.666 | 0.611 | 0.427 | 0.218 | 0.467 | 0.603 | 0.708 | 0.821 | 0.649 | 0.627 | 0.974
NCI-H2087 | 0.206 | 0.204 | 0.243 | 0.152 | 0.136 | 0.592 | 0.667 | 0.781 | 0.204 | 0.593 | 0.513 | 0.324 | 0.633 | 0.319 | 0.595 | 0.585 | 0.626 | 0.534 | 0.539 | 0.614
BEN | 0.491 | 0.435 | 0.374 | 0.484 | 0.559 | 0.531 | 0.53 | 0.59 | 0.514 | 0.263 | 0.286 | 0.257 | 0.294 | 0.291 | 1.07 | 1.01 | 1.05 | 0.97 | 0.891 | 0.552
NCI-H3122 | 0.106 | 0.106 | 0.106 | 0.0892 | 0.0783 | 1.01 | 1.07 | 1.02 | 0.579 | 0.879 | 0.952 | 0.729 | 0.941 | 0.764 | 0.592 | 0.636 | 0.678 | 0.567 | 0.513 | 0.933
LCLC-97TM1 | 0.906 | 0.74 | 0.81 | 0.761 | 0.65 | 0.802 | 0.871 | 0.868 | 0.685 | 0.649 | 0.543 | 0.24 | 0.554 | 0.418 | 0.442 | 0.327 | 0.457 | 0.426 | 0.411 | 0.446
NCI-H2228 | 0.18 | – | 0.153 | 0.115 | 0.124 | 0.812 | 0.53 | 0.588 | 0.613 | 0.687 | 0.725 | 0.453 | 0.637 | 0.597 | 0.657 | 0.478 | 0.695 | 0.329 | 0.273 | 0.482
COR-L23 | 0.639 | 0.63 | 0.771 | 0.358 | 0.176 | 0.535 | 0.396 | 0.535 | 0.421 | 0.78 | 0.815 | 0.722 | 0.809 | 0.74 | 0.28 | 0.406 | 0.36 | 0.253 | 0.152 | 0.396
